Experiments:
CDK7 = target: T1, CDK7 (Homo sapiens, UniProt P50613); test: CDK7 enzyme inhibition test; format: biochemical; conditions: [γ-33P]ATP, MBP substrate, 60 min preincubation at 25°C; Ki=IC50/(1+S/Km); read-out: Ki value of CDK7 inhibitory activity
T1 construct: purchased Carna Biosciences, Inc. 04-108
Method in brief: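 Commercial human CDK7 with myelin basic protein substrate in HEPES pH 7.4 buffer with DTT, Triton X-100, MgCl2; compound preincubated 60 min at 25° C, then reaction run 20 min at 30° C after adding [γ-^33P]ATP (500 μM solution). TCA-precipitated ^33P-MBP counted by scintillation; IC50 converted to Ki via Ki=IC50/(1+S/Km).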

CDK2 = target: T2, CDK2 (Homo sapiens, UniProt P24941); test: CDK2 enzyme inhibition test; format: biochemical; conditions: [γ-33P]ATP, MBP substrate; Ki=IC50/(1+S/Km); read-out: Ki value of CDK2 inhibitory activity
T2 construct: purchased Invitrogen Corp. PV3267
Method in brief: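 Commercial CDK2 phosphorylated MBP with [γ-33P]ATP (500 μM solution before mixing) in HEPES pH 7.4 buffer with DTT, Triton X-100 and MgCl2 for 20 min at 30 °C. TCA-precipitated 33P-MBP was counted by scintillation to give the IC50. Ki = IC50/(1+S/Km), with S the ATP concentration in the reaction.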

[1] = system: human large intestine cancer cell line (HCT-116); test: Human large intestine cancer (HCT-116) cell growth inhibition test; format: cell-based; conditions: HCT-116, 72 h, culture for 3 days, sulforhodamine B, read-out: GI50 value, HCT-116 cell growth inhibition
Method in brief: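 HCT-116 cells were seeded at 0.5 to 2.0×10^3 cells/well in McCoy's 5A with 10% FBS and dosed with compound at 0.1% final DMSO after overnight culture. Growth was measured by sulforhodamine B absorbance after 3 days. GI50 was calculated from the inhibition rate at each concentration.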

[2] = system: human large intestine cancer cell (HCT 116) tumor; test: Tumor growth inhibition test in HCT 116-subcutaneously transplanted nude mouse; format: in vivo; conditions: dose of 100 mg/kg, repeated oral administration, HCT-116 in female BALB nude mice, control group = 100%, read-out: rate of suppression of tumor volume
Method: A human large intestine cancer cell line (HCT-116) was cultured in a McCoy's 5A medium containing 10% FBS and 1% penicillin/streptomycin/amphotericin B and adjusted to 1.0×10^8 cells/mL with PBS or Hanks solution (HBSS(−)). The prepared cell suspension was subcutaneously injected at 0.1 mL/mouse to the right abdomens of female BALB nude mice (supplied by Charles River Laboratories Japan, Inc.). After rearing for a certain period, the long diameter (mm) and short diameter (mm) of tumor were measured with electronic calipers, and the tumor volume was calculated according to the following expression: Tumor volume (mm^3)=(Long diameter)×(Short diameter)×(Short diameter)×0.5
Individuals whose tumor volume was within the range of 50 to 200 mm^3 were selected and grouped such that the tumor volume was almost equivalent, then a test compound or only a solvent was orally administered in a repeated manner, and the body weights and tumor volume were measured. A test compound was suspended in a 0.5 w/v % aqueous methylcellulose solution (0.5% MC) (manufactured by Wako Pure Chemical Industries, Ltd.) and orally administered at 10 mL/kg in a repeated manner. When the tumor volume of the control group was defined as 100%, the rate of suppression of tumor volume (%) at each dose of the test compound was calculated.

PLK1 = target: T3, PLK1 (Homo sapiens, UniProt P53350); test: PLK1 enzyme (polo-like kinase) inhibition test; format: biochemical; conditions: [γ-33P]ATP, casein substrate; Ki=IC50/(1+S/Km); read-out: Ki value of PLK1 inhibitory activity
T3 construct: purchased Carna Biosciences, Inc. 05-157
T3 sequence (P53350 whole entry): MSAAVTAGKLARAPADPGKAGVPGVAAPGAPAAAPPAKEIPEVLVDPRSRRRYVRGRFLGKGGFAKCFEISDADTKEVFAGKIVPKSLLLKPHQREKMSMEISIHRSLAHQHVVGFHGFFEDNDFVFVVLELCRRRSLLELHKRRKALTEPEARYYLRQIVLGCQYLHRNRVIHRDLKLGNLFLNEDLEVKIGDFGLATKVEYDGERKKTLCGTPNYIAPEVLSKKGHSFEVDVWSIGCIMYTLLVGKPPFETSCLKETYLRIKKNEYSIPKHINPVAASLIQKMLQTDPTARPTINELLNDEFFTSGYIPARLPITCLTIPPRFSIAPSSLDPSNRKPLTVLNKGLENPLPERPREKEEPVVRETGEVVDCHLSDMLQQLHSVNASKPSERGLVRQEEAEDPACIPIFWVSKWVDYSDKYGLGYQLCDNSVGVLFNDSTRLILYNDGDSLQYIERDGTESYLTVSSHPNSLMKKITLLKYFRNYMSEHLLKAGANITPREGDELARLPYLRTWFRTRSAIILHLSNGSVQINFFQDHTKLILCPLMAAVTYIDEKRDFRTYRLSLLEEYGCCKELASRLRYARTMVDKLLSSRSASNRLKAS
Method in brief: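 Recombinant PLK1 phosphorylates casein with [γ-^33P]ATP in MOPS buffer (pH 7.0) containing DTT and magnesium acetate, 20 min at 30° C. Reaction stopped with TCA; washed precipitate counted by liquid scintillation. IC50 for inhibition of ^33P incorporation into casein, converted to Ki via Ki=IC50/(1+S/Km).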

T1 sequence (P50613 whole entry): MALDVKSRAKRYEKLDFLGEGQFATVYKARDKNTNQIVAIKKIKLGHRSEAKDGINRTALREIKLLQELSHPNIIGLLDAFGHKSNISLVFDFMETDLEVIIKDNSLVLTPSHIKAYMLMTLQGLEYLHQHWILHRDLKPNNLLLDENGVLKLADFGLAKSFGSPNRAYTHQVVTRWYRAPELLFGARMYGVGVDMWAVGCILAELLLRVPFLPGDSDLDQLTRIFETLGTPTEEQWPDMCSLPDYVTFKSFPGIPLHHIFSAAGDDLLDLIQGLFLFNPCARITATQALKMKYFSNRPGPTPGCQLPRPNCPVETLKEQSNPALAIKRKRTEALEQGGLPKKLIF
T1 sequence (P51946 whole entry partner): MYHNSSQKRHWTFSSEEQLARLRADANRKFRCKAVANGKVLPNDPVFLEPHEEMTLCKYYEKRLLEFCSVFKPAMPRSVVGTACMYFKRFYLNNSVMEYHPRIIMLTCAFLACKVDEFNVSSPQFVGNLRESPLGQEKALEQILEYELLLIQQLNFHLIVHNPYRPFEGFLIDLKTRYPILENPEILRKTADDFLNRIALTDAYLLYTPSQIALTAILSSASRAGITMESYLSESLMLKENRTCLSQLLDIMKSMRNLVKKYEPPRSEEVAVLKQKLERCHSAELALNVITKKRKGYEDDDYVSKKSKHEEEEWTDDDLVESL
T1 sequence (P51948 whole entry partner): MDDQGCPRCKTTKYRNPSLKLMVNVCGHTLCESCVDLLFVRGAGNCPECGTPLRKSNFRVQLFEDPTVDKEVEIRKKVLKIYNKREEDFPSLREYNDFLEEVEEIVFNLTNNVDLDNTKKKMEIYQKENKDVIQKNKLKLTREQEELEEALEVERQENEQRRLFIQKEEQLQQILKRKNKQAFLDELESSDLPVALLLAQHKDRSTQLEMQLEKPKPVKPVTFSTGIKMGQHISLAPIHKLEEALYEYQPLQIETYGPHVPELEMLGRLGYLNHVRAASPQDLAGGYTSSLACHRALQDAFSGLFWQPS

Row | SMILES | Ki (CDK7) [nM] | Ki (CDK2) [nM] | GI50 [1] [nM] | inhibition in vivo at 100 mg/kg [2] [%] | Ki (PLK1) [nM]
1 | CC1(C)c2[nH]nc(NC(=O)C3([Si](C)(C)C)CCC3)c2CN1C(=O)Nc1ccccc1 [IV-1, 6,6-Dimethyl-N-phenyl-3-[1-(trimethylsilyl)cyclobutanecarboxamido]-4,6-dihydropyrrolo[3,4-c]pyrazole-5(1H)-carboxamide] | ≤ 50 | ≥ 1000 | ≤ 100 | ≥ 50 | –
2 | CC1(C)c2[nH]nc(NC(=O)C3([Si](C)(C)C)CCC3)c2CN1C(=O)Nc1c(F)cccc1Br [IV-121, N-(2-Bromo-6-fluorophenyl)-6,6-dimethyl-3-[1-(trimethylsilyl)cyclobutanecarboxamido]-4,6-dihydropyrrolo[3,4-c]pyrazole-5 (1H)-carboxamide] | ≤ 50 | – | ≤ 100 | ≥ 50 | ≥ 5000
3 | COc1ccc(C)c(F)c1NC(=O)N1Cc2c(NC(=O)C3([Si](C)(C)C)CCC3)n[nH]c2C1(C)C [IV-689, N-(2-Fluoro-6-methoxy-3-methylphenyl)-6,6-dimethyl-3-[1-(trimethylsilyl)cyclobutanecarboxamido]-4,6-dihydropyrrolo[3,4-c]pyrazole-5(1H)-carboxamide] | ≤ 50 | ≥ 1000 | ≤ 100 | – | ≥ 5000
4 | Cc1ccc(F)c(NC(=O)N2Cc3c(NC(=O)C4([Si](C)(C)C)CCC4)n[nH]c3C2(C)C)c1Cl [IV-703, N-(2-Chloro-6-fluoro-3-methylphenyl)-6,6-dimethyl-3-[1-(trimethylsilyl)cyclobutanecarboxamido]-4,6-dihydropyrrolo[3,4-c]pyrazole-5(1H)-carboxamide] | ≤ 50 | ≥ 1000 | ≤ 100 | – | ≥ 5000
5 | CC1(C)c2[nH]nc(NC(=O)C3([Si](C)(C)C)CCC3)c2CN1C(=O)Nc1c(Cl)cc(F)cc1Cl [IV-709, N-(2,6-Dichloro-4-fluorophenyl)-6,6-dimethyl-3-[1-(trimethylsilyl)cyclobutanecarboxamido]-4,6-dihydropyrrolo[3,4-c]pyrazole-5(1H)-carboxamide] | ≤ 50 | ≥ 1000 | ≤ 100 | – | ≥ 5000
6 | Cc1ccc(F)c(Cl)c1NC(=O)N1Cc2c(NC(=O)C3([Si](C)(C)C)CCC3)n[nH]c2C1(C)C [IV-747, N-(2-Chloro-3-fluoro-6-methylphenyl)-6,6-dimethyl-3-[1-(trimethylsilyl)cyclobutanecarboxamido]-4,6-dihydropyrrolo[3,4-c]pyrazole-5(1H)-carboxamide] | ≤ 50 | ≥ 1000 | ≤ 100 | – | ≥ 5000
7 | CC1(C)c2[nH]nc(NC(=O)C3([Si](C)(C)C)CCC3)c2CN1C(=O)Nc1c(F)ccc2c1OCC2 [IV-997, N-(6-Fluoro-2,3-dihydrobenzofuran-7-yl)-6,6-dimethyl-3-[1-(trimethylsilyl)cyclobutanecarboxamido]-4,6-dihydropyrrolo[3,4-c]pyrazole-5(1H)-carboxamide] | ≤ 50 | ≥ 1000 | ≤ 100 | – | ≥ 5000
8 | CC1(C)c2[nH]nc(NC(=O)C3([Si](C)(C)C)CCC3)c2CN1C(=O)Nc1cccs1 [IV-1043, 6,6-Dimethyl-N-(thiophen-2-yl)-3-[1-(trimethylsilyl)cyclobutanecarboxamido]-4,6-dihydropyrrolo[3,4-c]pyrazole-5(1H)-carboxamide] | ≤ 50 | ≥ 1000 | ≤ 100 | – | ≥ 5000
9 | CC1(C)c2[nH]nc(NC(=O)C3([Si](C)(C)C)CCC3)c2CN1C(=O)Nc1ccsc1 [IV-1045, 6,6-Dimethyl-N-(thiophen-3-yl)-3-[1-(trimethylsilyl)cyclobutanecarboxamido]-4,6-dihydropyrrolo[3,4-c]pyrazole-5(1H)-carboxamide] | ≤ 50 | ≥ 1000 | ≤ 100 | – | ≥ 5000
10 | Cc1cc2ccc(F)c(NC(=O)N3Cc4c(NC(=O)C5([Si](C)(C)C)CCC5)n[nH]c4C3(C)C)c2o1 [IV-1059, N-(6-Fluoro-2-methylbenzofuran-7-yl)-6,6-dimethyl-3-[1-(trimethylsilyl)cyclobutanecarboxamido]-4,6-dihydropyrrolo[3,4-c]pyrazole-5(1H)-carboxamide] | ≤ 50 | ≥ 1000 | ≤ 100 | – | ≥ 5000
11 | Cc1coc2c(NC(=O)N3Cc4c(NC(=O)C5([Si](C)(C)C)CCC5)n[nH]c4C3(C)C)c(F)ccc12 [IV-1061, N-(6-Fluoro-3-methylbenzofuran-7-yl)-6,6-dimethyl-3-[1-(trimethylsilyl)cyclobutanecarboxamido]-4,6-dihydropyrrolo[3,4-c]pyrazole-5(1H)-carboxamide] | ≤ 50 | ≥ 1000 | ≤ 100 | – | ≥ 5000

Source: patent US10894798B2, “Substituted dihydropyrrolopyrazole derivative” (UBE INDUSTRIES, LTD., priority 2015, dated 2021)
